According to ChEMBL document CHEMBL3297661, “1-Substituted-5-[(3,5-dinitrobenzyl)sulfanyl]-1H-tetrazoles and their isosteric analogs: A new class of selective antitubercular agents active against drug-susceptible and multidrug-resistant mycobacteria” (Eur J Med Chem, 2014):
Converted amounts (≈) assume the structure as drawn.

Experiments:
[1] = tested on: Candida albicans; test: Antifungal activity against Candida albicans ATCC 44859 after 24 hrs by broth microdilution method; assay type: functional; conditions: ATCC 44859, 24 h
[2] = tested on: Candida tropicalis; test: Antifungal activity against Candida tropicalis 156 after 24 hrs by broth microdilution method; assay type: functional; conditions: Candida tropicalis, 156, 24 h
[3] = tested on: Pichia kudriavzevii; test: Antifungal activity against Candida krusei E28 after 24 hrs by broth microdilution method; assay type: functional; conditions: E28, 24 h
[4] = tested on: Trichosporon asahii; test: Antifungal activity against Trichosporon asahii 1188 after 24 hrs by broth microdilution method; assay type: functional; conditions: Trichosporon asahii, 1188, 24 h
[5] = tested on: Aspergillus fumigatus; test: Antifungal activity against Aspergillus fumigatus 231 after 24 hrs by broth microdilution method; assay type: functional, organism-based; conditions: Aspergillus fumigatus, 231, 24 h
[6] = tested on: Lichtheimia corymbifera; test: Antifungal activity against Absidia corymbifera 272 after 24 hrs by broth microdilution method; assay type: functional, organism-based; conditions: Lichtheimia corymbifera, 272, 24 h
[7] = tested on: Trichophyton mentagrophytes; test: Antifungal activity against Trichophyton mentagrophytes 445 after 72 hrs by broth microdilution method; assay type: functional, organism-based; conditions: Trichophyton mentagrophytes, 445, 72 h
[8] = tested on: Nakaseomyces glabratus; test: Antifungal activity against Candida glabrata 20/I after 24 hrs by broth microdilution method; assay type: functional
[9] = tested on: Pseudomonas aeruginosa; test: Antibacterial activity against Pseudomonas aeruginosa ATCC 9027 after 48 hrs by broth microdilution method; assay type: functional; conditions: ATCC 9027, 48 h
[10] = tested on: Candida albicans; test: Antifungal activity against Candida albicans ATCC 44859 after 48 hrs by broth microdilution method; assay type: functional; conditions: ATCC 44859, 48 h
[11] = tested on: Candida tropicalis; test: Antifungal activity against Candida tropicalis 156 after 48 hrs by broth microdilution method; assay type: functional; conditions: Candida tropicalis, 156, 48 h
[12] = tested on: Pichia kudriavzevii; test: Antifungal activity against Candida krusei E28 after 48 hrs by broth microdilution method; assay type: functional; conditions: E28, 48 h
[13] = tested on: Nakaseomyces glabratus; test: Antifungal activity against Candida glabrata 20/I after 48 hrs by broth microdilution method; assay type: functional
[14] = tested on: Trichosporon asahii; test: Antifungal activity against Trichosporon asahii 1188 after 48 hrs by broth microdilution method; assay type: functional; conditions: Trichosporon asahii, 1188, 48 h
[15] = tested on: Aspergillus fumigatus; test: Antifungal activity against Aspergillus fumigatus 231 after 48 hrs by broth microdilution method; assay type: functional, organism-based; conditions: Aspergillus fumigatus, 231, 48 h
[16] = tested on: Lichtheimia corymbifera; test: Antifungal activity against Absidia corymbifera 272 after 48 hrs by broth microdilution method; assay type: functional, organism-based; conditions: Lichtheimia corymbifera, 272, 48 h
[17] = tested on: Trichophyton mentagrophytes; test: Antifungal activity against Trichophyton mentagrophytes 445 after 120 hrs by broth microdilution method; assay type: functional, organism-based; conditions: Trichophyton mentagrophytes, 445, 120 h
[18] = tested on: Mycobacterium tuberculosis; test: Antimycobacterial activity against Mycobacterium tuberculosis CNCTC My 331/88 after 14 days by micromethod; assay type: functional; conditions: CNCTC My 331/88, 336 h
[19] = tested on: Mycobacterium tuberculosis; test: Antimycobacterial activity against Mycobacterium tuberculosis CNCTC My 331/88 after 21 days by micromethod; assay type: functional; conditions: CNCTC My 331/88, 504 h
[20] = tested on: Mycobacterium avium; test: Antimycobacterial activity against Mycobacterium avium CNCTC My 330/88 after 14 days by micromethod; assay type: functional; conditions: CNCTC My 330/88, 336 h
[21] = tested on: Mycobacterium avium; test: Antimycobacterial activity against Mycobacterium avium CNCTC My 330/88 after 21 days by micromethod; assay type: functional; conditions: CNCTC My 330/88, 504 h
[22] = tested on: Mycobacterium kansasii; test: Antimycobacterial activity against Mycobacterium kansasii CNCTC My 235/80 after 7 days by micromethod; assay type: functional; conditions: CNCTC My 235/80, 168 h
[23] = tested on: Mycobacterium kansasii; test: Antimycobacterial activity against Mycobacterium kansasii CNCTC My 235/80 after 14 days by micromethod; assay type: functional; conditions: CNCTC My 235/80, 336 h
[24] = tested on: Mycobacterium kansasii; test: Antimycobacterial activity against Mycobacterium kansasii CNCTC My 235/80 after 21 days by micromethod; assay type: functional; conditions: CNCTC My 235/80, 504 h
[25] = tested on: Mycobacterium kansasii; test: Antimycobacterial activity against Mycobacterium kansasii 6509/96 after 7 days by micromethod; assay type: functional; conditions: 6509/96, 168 h
[26] = tested on: Mycobacterium kansasii; test: Antimycobacterial activity against Mycobacterium kansasii 6509/96 after 14 days by micromethod; assay type: functional; conditions: 6509/96, 336 h
[27] = tested on: Mycobacterium kansasii; test: Antimycobacterial activity against Mycobacterium kansasii 6509/96 after 21 days by micromethod; assay type: functional; conditions: 6509/96, 504 h
[28] = tested on: Staphylococcus aureus; test: Antibacterial activity against Staphylococcus aureus ATCC 6538 after 24 hrs by broth microdilution method; assay type: functional; conditions: ATCC 6538, 24 h
[29] = tested on: Staphylococcus aureus; test: Antibacterial activity against Staphylococcus aureus ATCC 6538 after 48 hrs by broth microdilution method; assay type: functional; conditions: ATCC 6538, 48 h
[30] = tested on: Staphylococcus aureus; test: Antibacterial activity against methicillin-resistant Staphylococcus aureus H 5996/08 after 24 hrs by broth microdilution method; assay type: functional; conditions: H 5996/08, 24 h
[31] = tested on: Staphylococcus aureus; test: Antibacterial activity against methicillin-resistant Staphylococcus aureus H 5996/08 after 48 hrs by broth microdilution method; assay type: functional; conditions: H 5996/08, 48 h
[32] = tested on: Staphylococcus epidermidis; test: Antibacterial activity against Staphylococcus epidermidis H 6966/08 after 24 hrs by broth microdilution method; assay type: functional; conditions: H 6966/08, 24 h
[33] = tested on: Staphylococcus epidermidis; test: Antibacterial activity against Staphylococcus epidermidis H 6966/08 after 48 hrs by broth microdilution method; assay type: functional; conditions: H 6966/08, 48 h
[34] = tested on: Enterococcus faecalis; test: Antibacterial activity against Enterococcus faecalis J 14365/08 after 24 hrs by broth microdilution method; assay type: functional; conditions: J 14365/08, 24 h
[35] = tested on: Enterococcus faecalis; test: Antibacterial activity against Enterococcus faecalis J 14365/08 after 48 hrs by broth microdilution method; assay type: functional; conditions: J 14365/08, 48 h
[36] = tested on: Escherichia coli; test: Antibacterial activity against Escherichia coli ATCC 8739 after 24 hrs by broth microdilution method; assay type: functional
[37] = tested on: Escherichia coli; test: Antibacterial activity against Escherichia coli ATCC 8739 after 48 hrs by broth microdilution method; assay type: functional; conditions: ATCC 8739, ATCC 8739, 48 h
[38] = tested on: Klebsiella pneumoniae; test: Antibacterial activity against Klebsiella pneumoniae D 11750/08 after 24 hrs by broth microdilution method; assay type: functional
[39] = tested on: Klebsiella pneumoniae; test: Antibacterial activity against Klebsiella pneumoniae D 11750/08 after 48 hrs by broth microdilution method; assay type: functional; conditions: D 11750/08, 48 h
[40] = tested on: Klebsiella pneumoniae; test: Antibacterial activity against extended spectrum beta-lactamase producing Klebsiella pneumoniae J 14368/08 after 24 hrs by broth microdilution method; assay type: functional
[41] = tested on: Klebsiella pneumoniae; test: Antibacterial activity against extended spectrum beta-lactamase producing Klebsiella pneumoniae J 14368/08 after 48 hrs by broth microdilution method; assay type: functional; conditions: J 14368/08, 48 h
[42] = tested on: Pseudomonas aeruginosa; test: Antibacterial activity against Pseudomonas aeruginosa ATCC 9027 after 24 hrs by broth microdilution method; assay type: functional

For `OC(Cn1cncn1)(Cn1cncn1)c1ccc(F)cc1F` [FLUCONAZOLE], the IC80 [1] was 0.82 µM, the IC80 [2] was 1.6 µM and the IC80 [3] was 105 µM. For the same molecule, the IC80 [4] was 210 µM, the IC50 [5] was > 500 µM and the IC50 [6] was > 500 µM. For the same molecule, the IC50 [7] was 105 µM.
Work on `C[C@@H]1[C@H](O)[C@@H](C)/C=C/C=C/C=C/C=C/C=C/C=C/C=C/[C@H](O[C@@H]2O[C@H](C)[C@@H](O)[C@H](N)[C@@H]2O)C[C@@H]2O[C@](O)(C[C@@H](O)C[C@@H](O)[C@H](O)CC[C@@H](O)C[C@@H](O)CC(=O)O[C@H]1C)C[C@H](O)[C@H]2C(=O)O` [AMPHOTERICIN B] yielded an IC80 [1] of 0.54 µM, an IC80 [2] of 0.54 µM and an IC80 [3] of 1 µM. It also gave an IC80 [8] of 0.54 µM, an IC80 [4] of 0.27 µM and an IC50 [5] of 0.54 µM. For the same molecule, the IC50 [6] was 1 µM and the IC50 [7] was 0.54 µM.
With `O=[N+]([O-])c1cc(CSc2cccc[n+]2[O-])cc([N+](=O)[O-])c1` the IC95 [9] was > 500 µM, the IC80 [1] was > 500 µM and the IC80 [10] was > 500 µM. For the same molecule, the IC80 [2] was > 500 µM, the IC80 [11] was > 500 µM and the IC80 [3] was > 500 µM. The IC80 [12] was > 500 µM, the IC80 [8] was > 500 µM and the IC80 [13] was > 500 µM. The IC80 [4] was > 500 µM, the IC80 [14] was > 500 µM and the IC50 [5] was > 500 µM. The IC50 [15] was > 500 µM, the IC50 [6] was > 500 µM and the IC50 [16] was > 500 µM. For the same molecule, the IC50 [7] was > 500 µM, the IC50 [17] was > 500 µM and the MIC [18] was 62 µM (≈ 19.1 µg/mL). The MIC [19] was 62 µM (≈ 19.1 µg/mL), the MIC [20] was 500 µM (≈ 154 µg/mL) and the MIC [21] was 1000 µM (≈ 307 µg/mL). The MIC [22] was 16 µM (≈ 4.92 µg/mL), the MIC [23] was 32 µM (≈ 9.83 µg/mL) and the MIC [24] was 32 µM (≈ 9.83 µg/mL). For the same molecule, the MIC [25] was 125 µM (≈ 38.4 µg/mL), the MIC [26] was 125 µM (≈ 38.4 µg/mL) and the MIC [27] was 125 µM (≈ 38.4 µg/mL). The IC95 [28] was > 500 µM, the IC95 [29] was > 500 µM and the IC95 [30] was > 500 µM. For the same molecule, the IC95 [31] was > 500 µM, the IC95 [32] was > 500 µM and the IC95 [33] was > 500 µM. For the same molecule, the IC95 [34] was > 500 µM, the IC95 [35] was > 500 µM and the IC95 ([36]; ATCC 8739, ATCC 8739, 24 h) was > 500 µM. For the same molecule, the IC95 [37] was > 500 µM, the IC95 ([38]; D 11750/08, 24 h) was > 500 µM and the IC95 [39] was > 500 µM. The IC95 ([40]; J 14368/08, 24 h) was > 500 µM, the IC95 [41] was > 500 µM and the IC95 ([42]; ATCC 9027, 24 h) was > 500 µM.
GENTAMICIN showed an IC95 [36] of 0.26 µM, an IC95 [38] of 0.26 µM and an IC95 [40] of 0.26 µM. For the same molecule, the IC95 [42] was 1 µM.
